Measured values published in patent publication US20220000941A1, “MINERAL ELEMENTS COMPRISING HAFNIA ALVEI COMPOSITIONS” (TARGEDYS, priority 2019, published 2022).

Experiments:
Hafnia alvei 4597 [1] = assay: Turbidity of Hafnia alvei culture media by optical densitometry (OD at 640 nm); assay type: cell-based; settings: mineral source in LB medium, monitored during 48 hours
Experimental: The concentration of the minerals were based on their estimated concentration in […] (typical glass of water). However, in view of observing the Hafnia alvei strain development, the zinc and chrome sources were solubilized in a Luria Browth medium (LB). The composition of LB is as follows: Tryptone 10 g/L, yeast extract 5 g/L (Biokar Diagnostic®) and NaCl 0.5 g/L (Fluka®).
Hafnia alvei 4597 was incubated with Test medial-6 of example 1 and the turbidity of the culture media was monitored during 48 hours by means of optical densitometry (OD at 640 nm).
(§1) The development of Hafnia alvei in this new medium was monitored by optical densitometry and flow cytometry. LB medium with no added zinc or chrome was used as a control.

Hafnia alvei 4597 [2] = assay: Flow cytometry of cell integrity (propidium iodide and Syto 24), intact cells; assay type: cell-based; settings: zinc comprising media, flow cytometry at 24 h
Source text: Samples of the culture media 1-6 were further assessed for the cell integrity by means of flow cytometry using as markers propidium iodide and Syto® 24. The flow cytometry measured the number of intact cells opposed to the population of cells whose cellular membrane integrity had been compromised.
as §1

SMILES	turbidity of the culture medium (OD at 640 nm) compared to control (LB) medium (Hafnia alvei 4597 [1])	development inhibition compared to the control medium (Hafnia alvei 4597 [2])
O=C([O-])c1ccccn1.O=C([O-])c1ccccn1.O=C([O-])c1ccccn1.[Cr+3] [Chromium picolinate, chromium (3+); pyridine-2-carboxylate]	same turbidity as the control	
NCC(=O)[O-].NCC(=O)[O-].[Zn+2] [Zinc bisglycinate, zinc; 2-aminoacetate]		no significant development inhibition
